The results in this text go back to ChEMBL document CHEMBL5360538, “Recent updates on 1,2,3-triazole-containing hybrids with in vivo therapeutic potential against cancers: A mini-review” (Eur J Med Chem, 2023).

Each structure is given as a SMILES string.

The test system of data set [1] is 4T1. In words: Antitumor activity against mouse 4T1 cells overexpressing IDO1 implanted in BALB/c mouse model assessed as inhibition of tumor growth at 25 mg/kg, ip qd administered every day for 8 consecutive days and measured after 14 days relative to control. Type of data set: functional. As to conditions: 4T1, 336 h, time 14 day.
Data set [2] deals with PC-9. As to the kind of experiment: Antitumor activity against human PC-9 cells xenografted in NSG mouse model assessed as inhibition of tumor growth at 25 mg/kg, ip qd administered every day for 7 consecutive days relative to control. The following applies: PC-9, 168 h, time 7 day. Format: functional. Background: Xenograft models place foreign cells or tissue in a host animal.

Data set [3] has as its system NCI-H1650. As to the kind of experiment: Antiproliferative activity against drug-sensitive human NCI-H1650 cells assessed as inhibition of cell growth incubated for 48 hrs by MTT assay. As to conditions: NCI-H1650, 48 h, pooled result: one value given for 9 cell lines, strains, targets or settings. Type of data set: functional, cell-based. (Tetrazolium assays rely on reduction of a dye to a coloured formazan, in cell work by metabolically active cells.)

Data set [4] deals with KYSE-450. As to the kind of experiment: Antitumor activity against human KYSE-450 cells xenografted in nu/nu nude mouse model assessed as inhibition of tumor growth at 25 mg/kg, ip administered every day for 15 days relative to control. The following applies: KYSE-450, 360 h, time 15 day. Format: functional.
Data set [5] in a line: Antiproliferative activity against cisplatin-resistant human A549/DDP cells assessed as inhibition of cell growth incubated for 72 hrs by MTT assay. Format: functional, cell-based.
In data set [6] the test system is A549/TR. As to the kind of experiment: Antiproliferative activity against taxol-resistant human A549/Taxol cells assessed as inhibition of cell growth incubated for 72 hrs by MTT assay. Type of data set: functional, cell-based.
The test system of data set [7] is U2OS. As to the kind of experiment: Antiproliferative activity against human U2OS cells assessed as inhibition of cell growth incubated for 72 hrs by MTT assay. Type of data set: functional, cell-based.
Data set [8] relates to A549. As to the kind of experiment: Antiproliferative activity against human A549 cells assessed as inhibition of cell growth incubated for 72 hrs by MTT assay. Format: functional, cell-based. As to conditions: A549, 72 h.
Data set [9] has as its system A549. As to the kind of experiment: Antitumor activity against human A549 cells xenografted in Kunming mouse model assessed as inhibition of tumor growth at 20 mg/kg, iv administered twice daily for 2 weeks relative to control. Type of data set: functional. As to conditions: A549, 336 h.
In data set [10] the test system is HCT-116. As to the kind of experiment: Antiproliferative activity against human HCT-116 cells assessed as inhibition of cell growth incubated for 72 hrs by MTT assay. Format: functional, cell-based. The following applies: HCT-116, 72 h.
In data set [11] the test system is MCF7. As to the kind of experiment: Antiproliferative activity against drug-sensitive human MCF7 cells assessed as inhibition of cell growth by MTT assay. Type of data set: functional, cell-based.
The nature of data set [12]: AUC(0 to t) in Albino mouse at 1.0 mg/kg, iv. Format: ADME, organism-based. On the set-up: dose 1 mg/kg, route iv. As to conditions: in vivo.
Data set [13] in a line: Antiproliferative activity against human Trastuzumab-resistant BT-474 cells assessed as inhibition of cell growth by MTT assay. Type of data set: functional, cell-based, Trastuzumab-resistant BT-474 cell.
Data set [14] concerns BT-474. As to the kind of experiment: Antiproliferative activity against drug-sensitive human BT-474 cells assessed as inhibition of cell growth by MTT assay. Type of data set: functional, cell-based.
Data set [15] deals with MDA-MB-231. As to the kind of experiment: Antiproliferative activity against drug-sensitive human MDA-MB-231 cells assessed as inhibition of cell growth by MTT assay. Type of data set: functional, cell-based.
For data set [16], the system named is SK-BR-3. In words: Antiproliferative activity against drug-sensitive human SK-BR-3 cells assessed as inhibition of cell growth by MTT assay. Format: functional, cell-based.
A short description of data set [17]: Elimination half life in Albino mouse plasma at 1.0 mg/kg, iv. The following applies: read-out: beta t1/2 (converted). Format: ADME, organism-based.
A short description of data set [18]: Antiproliferative activity against human Tamoxifen-resistant MCF7 cells assessed as inhibition of cell growth by MTT assay. Format: functional, cell-based.
The nature of data set [19]: Plasma clearance in Albino mouse at 1.0 mg/kg, iv. Format: ADME, organism-based.
Data set [20] has as its system MCF7. In words: Antitumor activity against human MCF7 cells xenografted in mouse assessed as tumor growth inhibition by measuring T/C ratio at 25 mg/kg, iv. Format: functional.
Data set [21] deals with A549. In words: Antiproliferative activity against human A549 cells assessed as inhibition of cell growth incubated for 48 hrs by MTT assay. As to conditions: A549, 48 h. Format: functional, cell-based.
Data set [22] deals with A549. In words: Antitumor activity against human A549 cells xenografted in nude mouse model assessed as inhibition of tumor growth at 1.0 mg/kg, sc administered every three or four days for 4 weeks relative to control. Format: functional. As to conditions: A549, 672 h.
Data set [23] relates to NCI-H460. As to the kind of experiment: Antiproliferative activity against human NCI-H460 cells assessed as inhibition of cell growth incubated for 48 hrs by MTT assay. Type of data set: functional, cell-based. As to conditions: NCI-H460, 48 h.
For data set [24], the system named is A549. In words: Antitumor activity against human A549 cells xenografted in zebrafish model assessed as reduction in tumor focal area at 2.5 uM relative to control. Type of data set: functional. On the set-up: scale not given: the % may be the effect or the level left.
Data set [25] relates to MDA-MB-231. As to the kind of experiment: Antiproliferative activity against human MDA-MB-231 cells assessed as inhibition of cell growth incubated for 120 hrs by MTT assay. Type of data set: functional.
The test system of data set [26] is MDA-MB-435. In words: Antitumor activity against GFP tagged bone metastatic variant of human MDA-MB-435 cells xenografted in athymic nu/nu mouse assessed as reduction in tumor growth at 1 mg/kg, ip administered thrice a week for 65 days relative to control. As to conditions: time 65 day. Format: functional. On the set-up: scale not given: the % may be the effect or the level left.

Data set [27] is described as follows: Inhibition of Rac activation in human MDA-MB-231 cells treated for 24 hrs by Western blot analysis. Type of data set: cell-based.
Data set [28] concerns MDA-MB-435. As to the kind of experiment: Antitumor activity against GFP tagged bone metastatic variant of human MDA-MB-435 cells xenografted in athymic nu/nu mouse assessed as reduction in tumor growth at 10 mg/kg, ip administered thrice a week for 65 days relative to control. Format: functional. On the set-up: scale not given: the % may be the effect or the level left. The following applies: time 65 day.

The subject of data set [29] is MDA-MB-231. As to the kind of experiment: Antiproliferative activity against human MDA-MB-231 cells assessed as reduction in cell viability by MTS assay. Type of data set: functional, cell-based.
Data set [30] relates to NCI-H211. In words: Antiproliferative activity against human NCI-H211 cells assessed as reduction in cell viability by MTS assay. Type of data set: functional, cell-based.
Data set [31] concerns B16-F10. In words: Antitumor activity against mouse B16-F10 cells implanted in melanoma mouse model assessed as inhibition of tumor growth at 20 mg/kg, po relative to control. Format: functional.

Usually inhibition in vivo stands for the share of the control response that was lost under treatment. For `C#Cc1cccc(Nc2ncnc3cc(OCCOC)c(OCCOC)cc23)c1` [ERLOTINIB], the inhibition in vivo at 25 mg/kg in data set [1] was 36%; in [2], 90%.
The IC50 is the point on the concentration scale where inhibition reaches its midpoint. For the compound `C#Cc1cccc(Nc2ncnc3cc4c(cc23)OCCOCCOCCO4)c1` [ICOTINIB], the IC50 in [3] is more than 19200 nM. Also, the inhibition in vivo at 25 mg/kg in [4] stood at 15%.
On to `CC(C)=CC[C@]12OC(C)(C)C3C[C@H](C=C4C(=O)c5c(OCc6cn(CCN7CCOCC7)nn6)cccc5OC431)C2=O`, for which the IC50 in data set [5], in [6], in data set [7], in data set [8] and in data set [10] was 280 nM in each case. For the same compound, the inhibition in vivo at 20 mg/kg in data set [9] is 71.3%.
The term AUC(0-t) denotes exposure summed from dosing to a finite time, without extrapolation to infinity. By clearance is commonly meant a measure of how efficiently the substance is removed, as volume per time. Consider `O=C1CCCC2=C1C(c1cn(-c3ccc(Cl)cc3)nn1)C1=C(CCCC1=O)N2`, for which the IC50 in [11], in data set [13], in data set [14], in [15], in [16] and in data set [18] was 153 nM each time. Besides, the AUC(0-t) in data set [12] came to 232 ng·h/mL. Besides, the half-life in [17] is 8.1 h. In [19], this compound showed a clearance of 15.4 mL/min/kg. Also, the T/C in [20] is listed as 0.2.
As to `COc1ccc2c(c1)OCC(=O)N2Cc1cn(Cc2ccccc2)nn1`, the IC50 in data set [21] and in [23] was less than 8000 nM each time. In addition, the inhibition in vivo at 1 mg/kg in data set [22] was 60%.
As to `COc1cc2ncnc(Nc3ccc(F)c(Cl)c3)c2cc1OCCCN1CCOCC1` [GEFITINIB], the Activity in data set [24] was determined as 18.95%.
Usually GI50 stands for the concentration at which growth is held to half of that of the control. For `CCn1c2ccccc2c2cc(-n3nncc3-c3ccccc3)ccc21` [MBQ-167], the GI50 in [25] amounted to 130 nM. The figures for the Activity in data set [26] and in data set [28] were 80% and 95%, respectively. The same compound came in with an IC50 in data set [27] of 103 nM.
For `CCN1CCN(Cc2ccc(Nc3ncc(F)c(-c4cc(F)c5nc(C)n(C(C)C)c5c4)n3)nc2)CC1` [ABEMACICLIB], the IC50 in data set [11], in data set [13], in data set [14], in [15], in [16] and in data set [18] was 153 nM throughout. Moreover, in data set [12], the AUC(0-t) stood at 487 ng·h/mL. Also, the half-life in [17] was 1 h. The compound also gave a clearance in data set [19] of 43 mL/min/kg. In data set [20], the T/C is recorded as 0.51.
For `Cc1nnn(C)c1-c1cnc2c3cc4cnn(C)c4cc3n([C@H](c3ccccc3)C3CCOCC3)c2c1`, the IC50 came out at 1.58 nM in [29] and 1.99 nM in data set [30].
In the case of `C/C(=C(/Cl)c1ccccc1)c1nnc(-c2cn(CCCOc3ccc(C(C)(C)C)cc3)nn2)o1`, the inhibition in vivo at 20 mg/kg in data set [31] is 90%.
